The structures appear in SMILES notation.

Assay type in all cases: in vivo
Experiment [1] relates to Echinochloa crus-galli. In words: Test Example 3: herbicidal effect test by soil treatment in upland field. As to conditions: upland field soil treatment 1 day after sowing; 120 g/10a; evaluated 14 days after treatment. An outline of the steps: (§1)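 Pots of alluvial field soil sown with 20 seeds per weed species; one day later emulsifiable concentrate diluted in water and sprayed on soil surface at 100 L per 10 are, 120 g active ingredient per 10 are. Suppression rate (%) from dry weight versus untreated plots after 14 days, two replicates.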

The subject of experiment [2] is crabgrass. The description is as above. Conditions: upland field soil treatment 1 day after sowing; 120 g/10a; evaluated 14 days after treatment. The method, boiled down: as §1
Experiment [3] deals with Amaranthus viridis. The description is as above. As to conditions: upland field soil treatment 1 day after sowing; 120 g/10a; evaluated 14 days after treatment. An outline of the steps: as §1
Experiment [4] relates to Chenopodium album. Described as above. Conditions: upland field soil treatment 1 day after sowing; 120 g/10a; evaluated 14 days after treatment. An outline of the steps:
as §1

Experiment [5] relates to Echinochloa crus-galli. In words: Test Example 4: herbicidal effect test by foliage treatment in upland field. Conditions: upland field foliage treatment 7 days after sowing; 120 g/10a; evaluated 14 days after treatment. The method, boiled down: (§2)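 Application of 120 g active ingredient per 10 are, as a water-diluted emulsifiable concentrate sprayed 7 days after sowing into alluvial soil. Effect is expressed as percent dry-weight reduction versus untreated plots at day 14, duplicate plots.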

Experiment [6] has as its system crabgrass. The description is as above. As to conditions: upland field foliage treatment 7 days after sowing; 120 g/10a; evaluated 14 days after treatment. An outline of the steps: as §2
In experiment [7] the test system is Amaranthus viridis. Described as above. As to conditions: upland field foliage treatment 7 days after sowing; 120 g/10a; evaluated 14 days after treatment. The method, boiled down:
as §2

In experiment [8] the test system is Chenopodium album. The description is as above. As to conditions: upland field foliage treatment 7 days after sowing; 120 g/10a; evaluated 14 days after treatment. The method, boiled down: as §2
In experiment [9] the test system is Monochoria vaginalis. The experiment in a line: Test Example 2: herbicidal effect test by treatment during growing period in paddy field. Conditions: treatment 7 days after sowing, 120 g/10a, evaluated 14 days after treatment. The method, boiled down: (§3)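 Paddy soil in flooded pots (~3 cm water), 30 seeds per species sown 0–1 cm deep, greenhouse. Emulsifiable concentrate diluted in water and dripped into the water 7 days after sowing at 120 g a.i. per 10 are. Suppression (%) from dry weight vs untreated, 14 days post-treatment, two replicates.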

Experiment [10] relates to Echinochloa crus-galli. The experiment is described as above. Conditions: treatment 7 days after sowing, 120 g/10a, evaluated 14 days after treatment. The method, boiled down: as §3
For experiment [11], the system named is Scirpus juncoides. The experiment is described as above. As to conditions: treatment 7 days after sowing, 120 g/10a, evaluated 14 days after treatment. An outline of the steps: as §3
Experiment [12] concerns Lindernia pyxidaria. Described as above. As to conditions: treatment 7 days after sowing, 120 g/10a, evaluated 14 days after treatment. The method, boiled down: as §3
For experiment [13], the system named is Monochoria vaginalis. The experiment in a line: Test Example 1: herbicidal effect test by soil treatment in paddy field. As to conditions: 120 g/10a, paddy soil treatment just after sowing, 14 days after treatment. The method, boiled down:
(§4)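 Flooded paddy-soil pots (1/10000 are, N:P:K 17:17:17 fertilizer, puddled) were sown with 30 seeds per species at 0–1 cm, water kept ~3 cm in a greenhouse. Emulsifiable concentrate diluted in water was dripped in right after sowing at 120 g a.i. per 10 are. Suppression (%) came from dry weight vs untreated at 14 days.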

In experiment [14] the test system is Echinochloa crus-galli. Described as above. As to conditions: 120 g/10a, paddy soil treatment just after sowing, 14 days after treatment. An outline of the steps:
as §4

Experiment [15] relates to Scirpus juncoides. The experiment is described as above. Conditions: 120 g/10a, paddy soil treatment just after sowing, 14 days after treatment. The method, boiled down:
as §4

Experiment [16] relates to Lindernia pyxidaria. The description is as above. As to conditions: 120 g/10a, paddy soil treatment just after sowing, 14 days after treatment. The method, boiled down:
as §4

For the compound `Cc1ccc(N(C(=O)n2ncn(S(=O)(=O)C(C)C)c2=O)C(C)C)c(F)c1` [Compound 1-79], the “herbicidal effect (weed suppression rate), Echinochloa crus-galli” value (from here on “herbicidal effect … Echinochloa crus-galli”) in the experiment on Echinochloa crus-galli [1] and in the experiment with Echinochloa crus-galli [5] was 80% each time. The “herbicidal effect (weed suppression rate), Crabgrass” value (“herbicidal effect … Crabgrass” for short) in the experiment on crabgrass [2] and in the experiment with crabgrass [6] was 90% in each case. Besides, the “herbicidal effect (weed suppression rate), Amaranthus viridis” value (“herbicidal effect … Amaranthus viridis” below) in the experiment on Amaranthus viridis [3] and with Amaranthus viridis [7] was 90% each time. Also, the “herbicidal effect (weed suppression rate), Chenopodium album” value (“herbicidal effect … Chenopodium album” below) with Chenopodium album [4] and in the experiment on Chenopodium album [8] was 80% in each case. In addition, the “weed suppression rate, Monochoria vaginalis” value with Monochoria vaginalis [9] and with Monochoria vaginalis [13] was 80% throughout. The “weed suppression rate, Echinochloa crus-galli” value in the experiment with Echinochloa crus-galli [10] and in the experiment on Echinochloa crus-galli [14] was 90% each time. Also, the “weed suppression rate, Scirpus juncoides” value in the experiment on Scirpus juncoides [11] and in the experiment on Scirpus juncoides [15] was 90% each time. In addition, the “weed suppression rate, Lindemia pyxidaria” value with Lindernia pyxidaria [12] and in the experiment on Lindernia pyxidaria [16] was 80% in each case.
As to `CC(C)N(C(=O)n1ncn(S(=O)(=O)C2CCCCC2)c1=O)c1ccc(F)cc1` [Compound 1-298], the “herbicidal effect … Echinochloa crus-galli” value in the experiment with Echinochloa crus-galli [1] and with Echinochloa crus-galli [5] was 80% each time. Also, the “herbicidal effect … Crabgrass” value with crabgrass [2] and in the experiment on crabgrass [6] was 90% each time. Also, the “herbicidal effect … Amaranthus viridis” value with Amaranthus viridis [3] and with Amaranthus viridis [7] was 90% throughout. In addition, the “herbicidal effect … Chenopodium album” value with Chenopodium album [4] and in the experiment with Chenopodium album [8] was 80% each time. The “weed suppression rate, Monochoria vaginalis” value stood at 90% in the experiment with Monochoria vaginalis [9] and 80% with Monochoria vaginalis [13]. Further, the “weed suppression rate, Echinochloa crus-galli” value in the experiment on Echinochloa crus-galli [10] and in the experiment on Echinochloa crus-galli [14] was 90% throughout. Further, the “weed suppression rate, Scirpus juncoides” value in the experiment with Scirpus juncoides [11] and in the experiment on Scirpus juncoides [15] was 90% throughout. Further, the “weed suppression rate, Lindemia pyxidaria” value with Lindernia pyxidaria [12] and in the experiment with Lindernia pyxidaria [16] was 90% in each case.
In the case of `Cc1nn(C(=O)N(c2ccc(F)cc2F)C(C)C)c(=O)n1S(=O)(=O)C1CC1` [Compound 1-257], the “herbicidal effect … Echinochloa crus-galli” value in the experiment with Echinochloa crus-galli [1] and in the experiment on Echinochloa crus-galli [5] was 80% each time. Moreover, the “herbicidal effect … Crabgrass” value with crabgrass [2] and in the experiment on crabgrass [6] was 90% throughout. Also, the “herbicidal effect … Amaranthus viridis” value in the experiment on Amaranthus viridis [3] and in the experiment with Amaranthus viridis [7] was 90% in each case. Further, the “herbicidal effect … Chenopodium album” value with Chenopodium album [4] and in the experiment on Chenopodium album [8] was 80% each time. The “weed suppression rate, Monochoria vaginalis” value in the experiment on Monochoria vaginalis [9] and in the experiment with Monochoria vaginalis [13] was 80% in each case. Besides, the “weed suppression rate, Echinochloa crus-galli” value with Echinochloa crus-galli [10] and in the experiment with Echinochloa crus-galli [14] was 90% in each case. The “weed suppression rate, Scirpus juncoides” value in the experiment with Scirpus juncoides [11] and in the experiment with Scirpus juncoides [15] was 90% in each case. The “weed suppression rate, Lindemia pyxidaria” value with Lindernia pyxidaria [12] and in the experiment with Lindernia pyxidaria [16] was 80% in each case.
Regarding `CC(C)N(C(=O)n1ncn(S(=O)(=O)C2CCCCC2)c1=O)c1cccc(F)c1F` [Compound 1-305], the “herbicidal effect … Echinochloa crus-galli” value worked out at 100% in the experiment on Echinochloa crus-galli [1] and 90% in the experiment on Echinochloa crus-galli [5]. In addition, the “herbicidal effect … Crabgrass” value with crabgrass [2] and in the experiment with crabgrass [6] was 100% in each case. Further, the “herbicidal effect … Amaranthus viridis” value in the experiment with Amaranthus viridis [3] and in the experiment with Amaranthus viridis [7] was 80% throughout. For the same compound, the “herbicidal effect … Chenopodium album” value with Chenopodium album [4] and in the experiment on Chenopodium album [8] was 80% in each case. For the same compound, the “weed suppression rate, Monochoria vaginalis” value with Monochoria vaginalis [9] and in the experiment on Monochoria vaginalis [13] was 100% in each case. In addition, the “weed suppression rate, Echinochloa crus-galli” value in the experiment with Echinochloa crus-galli [10] and in the experiment with Echinochloa crus-galli [14] was 100% throughout. In addition, the “weed suppression rate, Scirpus juncoides” value in the experiment with Scirpus juncoides [11] and with Scirpus juncoides [15] was 100% throughout. For the same compound, the “weed suppression rate, Lindemia pyxidaria” value in the experiment with Lindernia pyxidaria [12] and in the experiment with Lindernia pyxidaria [16] was 100% each time.
In the case of `CC(C)N(C(=O)n1ncn(S(=O)(=O)C(C)C)c1=O)c1ccc(Cl)cn1` [Compound 1-93], the “herbicidal effect … Echinochloa crus-galli” value with Echinochloa crus-galli [1] and with Echinochloa crus-galli [5] was 90% throughout. The “herbicidal effect … Crabgrass” value with crabgrass [2] and in the experiment on crabgrass [6] was 90% throughout. Further, the “herbicidal effect … Amaranthus viridis” value in the experiment on Amaranthus viridis [3] worked out at 80%; with Amaranthus viridis [7], 0%. Besides, the “herbicidal effect … Chenopodium album” value in the experiment on Chenopodium album [4] was found to be 40%; in the experiment on Chenopodium album [8] it was 0%. The “weed suppression rate, Monochoria vaginalis” value is listed as 90% in the experiment with Monochoria vaginalis [9] and 80% in the experiment on Monochoria vaginalis [13]. Moreover, the results for the “weed suppression rate, Echinochloa crus-galli” value in the experiment with Echinochloa crus-galli [10] and in the experiment on Echinochloa crus-galli [14] were 100% and 90%, respectively. The “weed suppression rate, Scirpus juncoides” value with Scirpus juncoides [11] and in the experiment with Scirpus juncoides [15] was 90% in each case. Moreover, the “weed suppression rate, Lindemia pyxidaria” value in the experiment on Lindernia pyxidaria [12] and in the experiment on Lindernia pyxidaria [16] was 100% throughout.
For `C=CS(=O)(=O)n1cnn(C(=O)N(c2ccc(F)cc2F)C(C)C)c1=O` [Compound 1-142], the “herbicidal effect … Echinochloa crus-galli” value in the experiment on Echinochloa crus-galli [1] was determined as 100%; with Echinochloa crus-galli [5] it was 80%. The results for the “herbicidal effect … Crabgrass” value with crabgrass [2] and in the experiment with crabgrass [6] were 100% and 90%, respectively. The “herbicidal effect … Amaranthus viridis” value in the experiment on Amaranthus viridis [3] stood at 100%; in the experiment on Amaranthus viridis [7], 90%. Further, the “herbicidal effect … Chenopodium album” value in the experiment on Chenopodium album [4] is 100%; in the experiment with Chenopodium album [8], 80%. Besides, the results for the “weed suppression rate, Monochoria vaginalis” value in the experiment on Monochoria vaginalis [9] and in the experiment on Monochoria vaginalis [13] were 80% and 100%, respectively. For the same compound, the “weed suppression rate, Echinochloa crus-galli” value in the experiment with Echinochloa crus-galli [10] is on record as 90%; in the experiment with Echinochloa crus-galli [14], 100%. The “weed suppression rate, Scirpus juncoides” value came out at 90% with Scirpus juncoides [11] and 100% in the experiment on Scirpus juncoides [15]. Moreover, the “weed suppression rate, Lindemia pyxidaria” value in the experiment on Lindernia pyxidaria [12] is given as 80%; in the experiment on Lindernia pyxidaria [16], 100%.
Consider `CC(C)N(C(=O)n1ncn(S(=O)(=O)C2CC2)c1=O)c1ccccc1F` [Compound 1-169], for which the “herbicidal effect … Echinochloa crus-galli” value in the experiment with Echinochloa crus-galli [1] and in the experiment with Echinochloa crus-galli [5] was 80% in each case. Moreover, the “herbicidal effect … Crabgrass” value in the experiment with crabgrass [2] and in the experiment on crabgrass [6] was 90% each time. Moreover, the “herbicidal effect … Amaranthus viridis” value with Amaranthus viridis [3] and in the experiment on Amaranthus viridis [7] was 90% throughout. The “herbicidal effect … Chenopodium album” value in the experiment with Chenopodium album [4] and in the experiment with Chenopodium album [8] was 80% in each case. Further, the “weed suppression rate, Monochoria vaginalis” value with Monochoria vaginalis [9] and with Monochoria vaginalis [13] was 90% each time. Besides, the “weed suppression rate, Echinochloa crus-galli” value with Echinochloa crus-galli [10] and in the experiment with Echinochloa crus-galli [14] was 100% each time. Further, the “weed suppression rate, Scirpus juncoides” value in the experiment on Scirpus juncoides [11] is reported as 80%; in the experiment on Scirpus juncoides [15] it was 90%. Moreover, the “weed suppression rate, Lindemia pyxidaria” value with Lindernia pyxidaria [12] was found to be 80%; in the experiment with Lindernia pyxidaria [16], 90%.
As to `Cc1ccc(N(C(=O)n2ncn(S(=O)(=O)N(C)C)c2=O)C(C)C)c(F)c1` [Compound 1-1117], the “herbicidal effect … Echinochloa crus-galli” value in the experiment with Echinochloa crus-galli [1] and with Echinochloa crus-galli [5] was 80% in each case. The “herbicidal effect … Crabgrass” value in the experiment with crabgrass [2] and in the experiment on crabgrass [6] was 90% throughout. Also, the “herbicidal effect … Amaranthus viridis” value with Amaranthus viridis [3] and in the experiment on Amaranthus viridis [7] was 90% in each case. Also, the “herbicidal effect … Chenopodium album” value with Chenopodium album [4] and in the experiment on Chenopodium album [8] was 80% each time. Further, the “weed suppression rate, Monochoria vaginalis” value with Monochoria vaginalis [9] and in the experiment with Monochoria vaginalis [13] was 80% in each case. In addition, the “weed suppression rate, Echinochloa crus-galli” value in the experiment on Echinochloa crus-galli [10] and in the experiment on Echinochloa crus-galli [14] was 90% each time. Also, the “weed suppression rate, Scirpus juncoides” value in the experiment on Scirpus juncoides [11] and with Scirpus juncoides [15] was 90% each time. Also, the “weed suppression rate, Lindemia pyxidaria” value in the experiment with Lindernia pyxidaria [12] and in the experiment with Lindernia pyxidaria [16] was 80% each time.

For the origin of these results see US11076595B2, “1-(n,n-disubstituted carbamoyl) 4-(substituted sulfonyl)triazolin-5-one derivative, 4-(n,n-disubstituted carbamoyl) 1-(substituted sulfonyl)triazolin-5-one derivative, and herbicide containing said derivative as active ingredient” (HOKKO CHEMICAL INDUSTRY CO., LTD., priority 2017, dated 2021).
